What was measured:
[1] = system: B16 melanoma (B16M) cell adhesion to VEGF-induced HSE cells mediated by LFA-1; assay: B16M cell adhesion to VEGF-treated hepatic sinusoidal endothelial (HSE) cells in vitro; format: cell-based, murine; details: HSE pre-incubated with 10 μg/ml HC0303 30 min prior to 10 ng/ml rmVEGF for 8 hours; FIG. 5; P<0.001
Procedure: (§1) Time-dependent adhesion assays was carried out on a quantitative basis according to previous validated bioassays (Vidal-Vanaclocha et al., Cancer Research, 1994, 54(10):2667-72). For tumor cell pre-labelling, they were allowed to accumulate the non-fluorescent sterase substrate BCECF-AM and to hydrolyze it to its fluorescent product BCECF which becomes trapped inside living cells. To do this, 50 μg of BCECF-AM were diluted in dry DMSO (5 μl) and DME medium until […] (40 μg/ml).
(§2) Tumor cells (5×10^6) were incubated in BCECF-AM solution at 37° C. for 30 min. After gently washing, tumor cells were resuspended in fresh medium (DMEM without phenol red) at a concentration of 2×10^6 cells/ml.
(§3) Twenty-four hours post-plating, primary cultured hepatic sinusoidal endothelial (HSE) cells were also used for adhesion assay. To determine the basal autofluorescence per well, plates were read on a fluorometric microplate reader (Multiskan Ascent, Thermo Labsystems) using 485/22 nm excitation and the 530/25 nm emission filter. Then, 2×10^5 labeled tumor cells were added to each well of HSE cells and to collagen pre-coated control wells.
(§4) However, in order to determine the exact number of cells in each well, co-culture plates were read for a second time. Then, plates were incubated at 37° C. […]

[2] = system: 51b murine colon carcinoma (51b-CC) cell adhesion to HSE cells; assay: 51b colon carcinoma cell adhesion to HSE cells; format: cell-based; details: 51b cells, FIG. 6A
Procedure: as §1, §2, §3, §4

[3] = system: Human peripheral blood lymphocyte (PBL) adhesion to immobilized human recombinant ICAM-1; assay: Human PBL adhesion assay to immobilized recombinant human ICAM-1; format: cell-based; details: PBLs 100 ng/ml PMA 30 min, then HC0303 20 μg/5×10^5 cells for 30 min; FIG. 7; P<0.01
Procedure: Ninety six-well plates were coated with 2 μg/ml recombinant human ICAM-1 (R&D Systems, Minneapolis, Minn.) at 4° C. overnight. Nonspecific binding sites on plastic were blocked by treating the wells with 100 μl of PBS containing 0.5% BSA for 2 h at room temperature. Isolated human PBLs were incubated with either basal medium or 100 ng/ml PMA for 30 min. Then, PBLs were BCECF-AM-labeled and after washing, the compound HC0303 (20 μg/5×10^5 cells) was added for 30 min.
For adhesion assay, PBLs (5×10^4 per well) were added to quadruplicate wells. Then, plates were incubated for 1 hour at 37° C. before unattached cells were removed by washing three times with fresh medium. The number of adhering cells was determined using the same quantitative fluorescence measurement system as above described.
That this anti-adhesive effect of compound HC0303 is due to LFA-1/ICAM-1 interaction blockade was further confirmed along a lymphocyte adhesion assay to immobilized ICAM-1 substrate. Cultured PBLs were incubated with either basal medium or 100 ng/ml PMA for 30 min. Then, PBLs were BCECF-AM-labeled and after washing, compound HC0303 (20 μg/5×10^5 cells) was added for 30 minutes prior to the adhesion assay to a ICAM-1-coated plate. […] The results are the mean ±SD of three separate experiments, each in sextuplicate (n=18). […]

[4] = system: Co26-CC cells; assay: Viability of Co26-CC cells after in vitro pretreatment; format: cell-based, murine; details: in vitro cancer cell pretreatment with HC0303

CC[C@H](C)C(OCc1ccccc1)[C@@H]1[C@H]([N+](=O)[O-])[C@H](c2ccccc2)N[C@]1(C)C(=O)NCCC(=O)O (stereo partly drawn) [HC0303, 3-[(2S,3R,4S,5S)-3-[(2S)-1-(Benzyloxy)-2-methylbutyl]-2-methyl-4-nitro-5-phenylpyrrolidine-2-carboxamido]propanoic acid]
B16M cell adhesion increase produced in response of VEGF [1]: abrogated | PMA-induced cancer cell adhesion to HSE cells ([2]; 100 ng/ml PMA 30 min, then HC0303 20 μg/5×10^5 cells for 30 min, P<0.01): significantly decreased | adhesion to untreated HSE cells (no PMA) ([2]; HC0303 20 μg/5×10^5 cells for 30 min): did not affect | PMA-induced adhesion of PBLs to immobilized human recombinant ICAM-1 [3]: significantly decreased | Cell viability of Co26-CC cells [4]: without Affecting Cell Viability | melting point: 104 to 105 °C

Source: US7943660B2, “Inhibitors of the LFA-1/ICAM-1 interaction and uses thereof” (Dominion Pharmakine S.L., priority 2005, dated 2011)
